Assay results published in patent publication US20100016371A1, “Indole Compounds” (Glaxo Group Limited, priority 2006, published 2010).

What was measured:
[1] = target: T1, human prostanoid EP1 receptor (Homo sapiens, UniProt P34995); test: Binding assay for the human prostanoid EP1 receptor (competition with [3H]-PGE2); conditions: [3H]-PGE2 competition, CHO-K1 cell membranes; averages of a number of experiments
T1 construct: expressed in transfected cells; host or cells: CHO-K1 cells, membrane fraction
T1 sequence (P34995 1-402): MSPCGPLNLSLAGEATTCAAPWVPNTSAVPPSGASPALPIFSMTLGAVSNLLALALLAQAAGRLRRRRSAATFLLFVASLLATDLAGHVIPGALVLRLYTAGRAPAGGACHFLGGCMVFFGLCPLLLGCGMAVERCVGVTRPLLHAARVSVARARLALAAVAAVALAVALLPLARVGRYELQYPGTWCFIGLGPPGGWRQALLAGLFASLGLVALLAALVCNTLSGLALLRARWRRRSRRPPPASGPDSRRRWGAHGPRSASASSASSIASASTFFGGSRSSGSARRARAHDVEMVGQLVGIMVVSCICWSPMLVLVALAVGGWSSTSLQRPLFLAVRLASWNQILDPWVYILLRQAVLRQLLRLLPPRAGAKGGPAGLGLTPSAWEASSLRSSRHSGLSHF
Description: Binding Assay for the Human Prostanoid EP1 Receptor
Competition assay using [^3H]-PGE2
Compound potencies are determined using a radioligand binding assay. In this assay compound potencies are determined from their ability to compete with tritiated prostaglandin E2 ([^3H]-PGE2) for binding to the human EP1 receptor.
This assay utilises Chinese hamster ovary-K1 (CHO-K1) cells into which a stable vector containing the EP1 cDNA has previously been transfected. Cells are cultured in suitable flasks containing culture medium such as DMEM:F-12 supplemented with 10% v/v foetal calf serum, 2 mM L-glutamine, 0.25 mg/ml geneticin, […] puromycin and 10 μM indomethacin.
Cells are detached from the culture flasks by incubation in calcium and magnesium free phosphate buffered saline containing 1 mM disodium ethylenediaminetetraacetic acid (Na2EDTA) and 10 μM indomethacin for 5 min. The cells are isolated by centrifugation at 250×g for 5 mins and suspended in an ice cold buffer such as 50 mM Tris, 1 mM Na2EDTA, 140 mM NaCl, 10 μM indomethacin (pH 7.4). The cells are homogenised using a Polytron tissue disrupter (2×10s burst at full setting), centrifuged at 48,000×g for 20 mins and the pellet containing the membrane fraction is washed (optional) three times by suspension and centrifugation at 48,000×g for 20 mins. The final membrane pellet is suspended in an assay buffer such as 10 mM 2-[N-morpholino]ethanesulphonic acid, 1 mM Na2EDTA,10 mM MgCl2 (pH 6). Aliquots are frozen at −80° C. until required.
For the binding assay the cell membranes, competing compounds and [^3H]-PGE2 (3 nM final assay concentrations are incubated in a final volume of 100 μl for 30 min at 30° C. All reagents are prepared in assay buffer. Reactions are terminated by rapid vacuum filtration over GF/B filters using a Brandell cell harvester. The filters are washed with ice cold assay buffer, dried and the radioactivity retained on the filters is measured by liquid scintillation counting in Packard TopCount scintillation counter.
The data are analysed using non linear curve fitting techniques to determine the concentration of compound producing 50% inhibition of specific binding (IC50).

[2] = target: T2, human EP1 receptor (Homo sapiens, UniProt P34995); test: human EP1 calcium mobilisation assay (FLIPR, CHO-K1 cells); format: cell-based; conditions: antagonism of PGE2-induced calcium mobilisation, CHO-K1 cells expressing EP1; averages of a number of experiments; read-out: functional pKi (converted)
T2 construct: expressed in transfected cells; host or cells: CHO-K1 cells, pCIN vector
T2 sequence (P34995 1-402): T1 sequence (P34995 1-402)
Description: (§1) Biological Activity at EP1 and EP3 Receptors
(§2) Briefly, the antagonist properties of compounds are assessed by their ability to inhibit the mobilisation of intracellular calcium ([Ca^2+]i) in response to activation of EP1 or EP3 receptors by the natural agonist hormone prostaglandin E2 (PGE2). Increasing concentrations of antagonist reduce the amount of calcium that a given concentration of PGE2 can mobilise. The net effect is to displace the PGE2 concentration-effect curve to higher concentrations of PGE2. The amount of calcium produced is assessed using a calcium-sensitive fluorescent dye such as Fluo-4, AM and a suitable instrument such as a Fluorimetric Imaging Plate Reader (FLIPR). Increasing amounts of [Ca^2+]i produced by receptor activation increase the amount of fluorescence produced by the dye and give rise to an increasing signal. The signal may be detected using the FLIPR instrument and the data generated may be analysed with suitable curve-fitting software.
The human EP1 or EP3 calcium mobilisation assay (hereafter referred to as ‘the calcium assay’) utilises Chinese hamster ovary-K1 (CHO-K1) cells into which a stable (pCIN; BioTechniques 20(1996): 102-110) vector containing either EP1 or EP3 cDNA has previously been transfected. Cells are cultured in suitable flasks containing culture medium such as DMEM:F-12 supplemented with 10% v/v foetal calf serum, 2 mM L-glutamine, 0.25 mg/ml geneticin, 100 μM flurbiprofen and 10 μg/ml puromycin.
For assay, cells are harvested using a proprietary reagent that dislodges cells such as Versene. Cells are re-suspended in a suitable quantity of fresh culture media for introduction into a 384-well plate. Following incubation for 24 hours at 37° C. the culture media is replaced with a medium containing Fluo-4 and the detergent pluronic acid, and a further incubation takes place. Concentrations of compounds are then added to the plate in order to construct concentration-effect curves. This may be performed on the FLIPR in order to assess the agonist properties of the compounds. Concentrations of PGE2 are then added to the plate in order to assess the antagonist properties of the compounds.
The data so generated may be analysed by means of a computerised curve-fitting routine. The concentration of compound that elicits a half-maximal inhibition of the calcium mobilisation induced by PGE2 (pIC50) may then be estimated.

[3] = target: T3, human EP3 receptor (Homo sapiens, UniProt P43115); test: human EP3 calcium mobilisation assay (FLIPR, CHO-K1 cells); format: cell-based; conditions: antagonism of PGE2-induced calcium mobilisation, CHO-K1 cells expressing EP3; averages of a number of experiments; read-out: functional pKi (converted)
T3 construct: expressed in transfected cells; host or cells: CHO-K1 cells, pCIN vector
T3 sequence (P43115 1-390): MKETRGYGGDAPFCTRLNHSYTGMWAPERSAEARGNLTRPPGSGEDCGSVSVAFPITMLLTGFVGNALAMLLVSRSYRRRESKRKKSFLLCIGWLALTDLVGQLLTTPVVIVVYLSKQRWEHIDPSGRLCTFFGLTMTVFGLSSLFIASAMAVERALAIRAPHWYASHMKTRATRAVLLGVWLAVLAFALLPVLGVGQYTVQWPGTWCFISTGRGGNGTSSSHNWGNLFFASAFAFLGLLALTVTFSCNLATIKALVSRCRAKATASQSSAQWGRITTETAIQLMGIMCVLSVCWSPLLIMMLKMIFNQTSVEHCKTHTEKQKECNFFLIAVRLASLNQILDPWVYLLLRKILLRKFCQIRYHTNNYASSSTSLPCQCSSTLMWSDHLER
Description: as §1
as §2, with “software. […]” for “software.”
For assay, cells are harvested using a proprietary reagent that dislodges cells such as Versene. Cells are re-suspended in a suitable quantity of fresh culture media for introduction into a 384-well plate. […]
The data so generated may be analysed by means of a computerised curve-fitting routine. […]

Row | SMILES | IC50 [1] | Ki [2] | Ki [3]
1 | CCCc1cn(-c2nc(C(=O)O)cs2)c2cc(Cl)ccc12 [Example 1, 2-(6-Chloro-3-propyl-1H-indol-1-yl)-1,3-thiazole-4-carboxylic acid] | ≤ 0.1 µM | ≤ 0.1 µM | –
2 | CC(C)(C)CCc1cn(-c2nc(C(=O)O)cs2)c2cc(Cl)ccc12 [Example 2, 2-[6-Chloro-3-(3,3-dimethylbutyl)-1H-indol-1-yl]-1,3-thiazole-4-carboxylic acid] | ≤ 0.1 µM | ≤ 0.1 µM | –
3 | CC(C)c1cn(-c2nc(C(=O)O)cs2)c2cc(Cl)ccc12 [Example 3, 2-[6-Chloro-3-(1-methylethyl)-1H-indol-1-yl]-1,3-thiazole-4-carboxylic acid] | ≤ 0.1 µM | ≤ 0.1 µM | –
4 | CC(C)Cc1cn(-c2nc(C(=O)O)cs2)c2cc(Br)ccc12 [Example 4, 2-[6-Bromo-3-(2-methylpropyl)-1H-indol-1-yl]-1,3-thiazole-4-carboxylic acid] | ≤ 0.1 µM | ≤ 0.1 µM | –
5 | CC(C)Cc1cn(-c2nc(C(=O)O)co2)c2cc(Cl)ccc12 [Example 5, 2-[6-Chloro-3-(2-methylpropyl)-1H-indol-1-yl]-1,3-oxazole-4-carboxylic acid] | ≤ 0.1 µM | ≤ 0.1 µM | –
6 | CC(C)Cc1cn(Cc2nc(C(=O)O)cs2)c2cc(Cl)ccc12 [Example 6, 2-{[6-Chloro-3-(2-methylpropyl)-1H-indol-1-yl]methyl}-1,3-thiazole-4-carboxylic acid] | ≤ 0.1 µM | ≤ 0.1 µM | –
7 | CC(C)C(=O)c1cn(-c2nc(C(=O)O)cs2)c2cc(Cl)ccc12 [Example 7, 2-[6-Chloro-3-(2-methylpropanoyl)-1H-indol-1-yl]-1,3-thiazole-4-carboxylic acid] | – | ≤ 0.1 µM | ≥ 2 µM
8 | O=C(O)c1csc(-n2cc(Cc3ccccc3)c3ccc(Cl)cc32)n1 [Example 8, 2-[6-Chloro-3-(phenylmethyl)-1H-indol-1-yl]-1,3-thiazole-4-carboxylic acid] | – | ≤ 0.1 µM | –
9 | CC(C)Cc1cn(-c2nc(C(=O)O)cs2)c2ccccc12 [Example 10, 2-[3-(2-Methylpropyl)-1H-indol-1-yl]-1,3-thiazole-4-carboxylic acid] | – | ≤ 0.1 µM | –
10 | CC(C)Cc1nn(-c2nc(C(=O)O)cs2)c2cc(Cl)ccc12 [Example 11, 2-[6-Chloro-3-(2-methylpropyl)-1H-indazol-1-yl]-1,3-thiazole-4-carboxylic acid] | ≤ 0.1 µM | ≤ 0.1 µM | –
11 | CC(C)(C)Cc1cn(-c2nc(C(=O)O)cs2)c2cc(Cl)ccc12 [Example 12, 2-[6-Chloro-3-(2,2-dimethylpropyl)-1H-indol-1-yl]-1,3-thiazole-4-carboxylic acid] | ≤ 0.1 µM | ≤ 0.1 µM | –
12 | CC(C)Cc1cn(-c2nc(C(=O)O)cs2)c2cc(C(F)(F)F)ccc12 [Example 13, 2-[3-(2-Methylpropyl)-6-(trifluoromethyl)-1H-indol-1-yl]-1,3-thiazole-4-carboxylic acid] | ≤ 0.1 µM | ≤ 0.1 µM | –
13 | CC(C)Cc1cn(-c2nc(CC(=O)O)cs2)c2cc(Cl)ccc12 [Example 15, {2-[6-Chloro-3-(2-methylpropyl)-1H-indol-1-yl]-1,3-thiazol-4-yl}acetic acid] | – | ≤ 0.1 µM | –
14 | CC(C)Cc1cn(-c2nc(C(=O)O)cs2)c2cc(F)ccc12 [Example 16, 2-[6-Fluoro-3-(2-methylpropyl)-1H-indol-1-yl]-1,3-thiazole-4-carboxylic acid] | ≤ 0.1 µM | ≤ 0.1 µM | –
15 | CC(C)Cc1cn(-c2nc(C(=O)O)cs2)c2cc(Cl)ccc12 [Example 17, 2-[6-Chloro-3-(2-methylpropyl)-1H-indol-1-yl]-1,3-thiazole-4-carboxylic acid] | ≤ 0.1 µM | ≤ 0.1 µM | –
16 | CC(C)Cc1cn(-c2ccc(C(=O)O)o2)c2cc(Cl)ccc12 [Example 18, 5-[6-Chloro-3-(2-methylpropyl)-1H-indol-1-yl]-2-furancarboxylic acid] | ≤ 0.1 µM | ≤ 0.1 µM | –
17 | CC(C)Cc1cn(-c2cccc(C(=O)O)n2)c2cc(Cl)ccc12 [Example 19, 6-[6-Chloro-3-(2-methylpropyl)-1H-indol-1-yl]-2-pyridinecarboxylic acid] | ≤ 0.1 µM | ≤ 0.1 µM | –
18 | CCc1cn(-c2nc(C(=O)O)cs2)c2cc(Cl)ccc12 [Example 20, 2-(6-Chloro-3-ethyl-1H-indol-1-yl)-1,3-thiazole-4-carboxylic acid] | – | ≤ 0.1 µM | ≥ 2 µM
19 | CC(C)Cc1cn(-c2ncc(C(=O)O)s2)c2cc(Cl)ccc12 [Example 21, 2-[6-Chloro-3-(2-methylpropyl)-1H-indol-1-yl]-1,3-thiazole-5-carboxylic acid] | ≤ 0.1 µM | ≤ 0.1 µM | –
20 | CC(C)Cc1cn(-c2ccc(C(=O)O)s2)c2cc(Cl)ccc12 [Example 22, 5-[6-Chloro-3-(2-methylpropyl)-1H-indol-1-yl]-2-thiophenecarboxylic acid] | ≤ 0.1 µM | ≤ 0.1 µM | –
21 | CC(C)Cc1cn(-c2nc(C(=O)NS(=O)(=O)c3ccccc3)cs2)c2cc(Cl)ccc12 [Example 23, 2-[6-Chloro-3-(2-methylpropyl)-1H-indol-1-yl]-N-(phenylsulfonyl)-1,3-thiazole-4-carboxamide] | ≤ 0.1 µM | ≤ 0.1 µM | –
22 | Cc1ccc2c(CC(C)C)cn(-c3nc(C(=O)O)cs3)c2c1 [Example 24] | ≤ 0.1 µM | ≤ 0.1 µM | –
